From patent US9095616B2, “Caged platinum nanoclusters for anticancer chemotherapeutics” (priority 2013, dated 2015)

Columns and labels:
MDA-MB-231 = assay: MTT cytotoxicity; type: cell-based, human; conditions: MDA-MB-231, 3 d
Procedure: Cells of the MDA-MB-231 line (Bioresource Collection and Research Center, Taiwan) were cultured in RPMI 1640 medium supplemented with 10% fetal bovine serum under 5% CO2 atmosphere at 37° C. Twenty-four-well cell culture plates were inoculated with 1×10^5 cells/well and kept at 37° C. for 24 h. The culture medium was changed in the presence of various concentrations of different treatments ([…] alone, carboplatin, cisplatin, and CPN) in culture medium (three replicates). The tests were performed for 3 d without changing the medium. After the overlaying cell-culture medium was removed, the cells were incubated with 3-(4,5-dimethylthiazol-2-yl)-2,5-diphenyltetrazolium bromide (MTT, Sigma, Mo. USA) at 37° C. for 1 h. After treatment, the fomazan product from MTT was dissolved in DMSO and quantified using a conventional ELISA reader at 570 nm. For calibration, a blank test was performed in a 24-well plate under the same conditions.

[1] = system: subcutaneous breast cancer xenograft; assay: Tumor suppression after IT injection; type: in vivo, Balb/c nude mice; conditions: IT injection once a week for 3 weeks, vs PBS and G2NH2
Procedure: (§1) Seven-week-old female Balb/c nude mice (16-20 g) were kept on a 12-h light/12-h dark cycle at 24±2° C. and 50±10% relative humidity, with free access to water and food. They were subcutaneously injected with […] cells/mouse to establish a breast tumor model. Tumors were measured by a digital Vernier caliper across each tumor's longest (a) and shortest (b) diameter, and tumor volume (V) was calculated by the formula V=0.5a×b^2. When the tumor size reached approximately 60 mm^3 and 150 mm^3, CPN and DCPN were administered by IT and IV injection, respectively. The stud of comparative efficiency in tumor suppression was performed. The mice were treated with CPN via IT injections once a week for a total of 3 weeks. Similarity. DCPN was administered to mice via IV once a week for 4 weeks. The injection volume was 5 μL/g body weight and the tumor size was calculated every 2 to 3 days. After the mice were sacrificed, tumors and blood were collected and placed in EDTA glass tubes.

[2] = system: subcutaneous xenograft of breast cancer; assay: Tumor suppression after IV injection with iRGD co-administration; type: in vivo, Balb/c nude mice; conditions: IV 16.6 μmol/kg at 7-day intervals, 4 weeks, iRGD co-administered, vs PBS and G2NH2
Procedure: as §1
The therapeutic efficacy of CPN using subcutaneous breast cancer xenograft in mice was evaluated by intratumoral (IT) injection. […] Consecutive tissue sections front four groups, including the control, cisplatin, G2NH2, and DCPN groups were examined histologically by hematoxylin and eosin (H&E) staining at the end point, and the slides were evaluated by an independent pathologist (FIG. 16). […]

[3] = system: subcutaneous breast cancer xenograft; assay: TUNEL assay of tumor tissue; type: in vivo, Balb/c nude mice; conditions: after treatment for 48 hours
From the text: Terminal dexoxynucleotidyl […]-mediated dUTP nick end labeling (TUNEL) assay was used for in situ detection of apoptotic cell death. The frozen sections of tumor tissue (4 μm thick) were warmed up to room temperature. The slides were washed 3 times with PBS to remove OCT (one of tumor's embedded medium for frozen tissues). The labeling procedures followed the standard protocol of this kit. These slides were stained with 3,3'-diaminobenzidne (DAB, Thermo, S21024-2), then counterstained with hematoxylin and mounted onto glass coverslisps before monitoring by light microscopy.

MDA-MB-231 cell line = assay: ROS assay using CM-H2DCFDA; type: cell-based, human; conditions: 3 h
Procedure: MDA-MB-231 cell line was cultured in RPMI 1640 medium (media were supplemented with 10% fetal bovine serum) under 5% CO2 atmosphere at 37° C. The cells were inoculated with 1×10^5 cells per well in a 6-well cell-culture plate and cultivated at 37° C. for 24 h. Then, the culture medium was changed with the presence of various treatments, including […] alone, the CPN, cisplatin, and 0.03% H2O2 in the culture medium. The tests were performed for 3 h without changing the medium. After removal of the supernatant of cell culture medium, the cells were isolated for ROS assay using CM-H2DCFDA from INVITROGENTM.

[4] = Maximal tolerated dose (Table 1); type: in vivo; conditions: IV injection
Procedure: The therapeutic efficacy of CPN using subcutaneous breast cancer xenograft in mice was evaluated by intratumoral (IT) injection. The maximal tolerated dose (MTD) of various drugs, such as CPN and cisplatin, was described in Table 1. […] Thus, the programmed death pathway of CPN-treated cells might be similar to that of cisplatin-treated cells. We verified whether the CPN could be injected into blood vessels to exert tumor-inside activation for anticancer chemotherapeutics. Thus, the CPN was extra coated with a cleavable PEG layer to prevent protein adhesions after intravenous (i.v.) injection to form a double-caged PN (DCPN). […] To render the DCPN with a targeting function, an iRGD tumor-penetrating peptide was co-administered with the DCPN into subcutaneous xenograft nude mice of breast cancer by IV administration. The tumor size in each mouse was grown to about 150 mm^3 to facilitate DCPN delivery. Additionally, the DCPN and one of the control groups (G2NH2 coated with a PEG corona) were pre-attached with as NIR dye, cy5.5, for real-time tracking alter administration. […] Consecutive tissue sections front four groups, including the control, cisplatin, G2NH2, and DCPN groups were examined histologically by hematoxylin and eosin (H&E) staining at the end point, and the slides were evaluated by an independent pathologist (FIG. 16). […]

[5] = system: subcutaneous breast cancer xenograft; assay: Active caspase-3 immunohistochemistry of tumor tissue; type: in vivo, Balb/c nude mice
Procedure: The frozen sections of tumor tissue (4 μm thick) were warm up to room temperature washed 3 times with PBS (5 min/time), and fixed with freshly prepared 4% paraformaldehyde in PBS for 15 minutes. The fixed sections were immersed in a polyclonal rabbit anti-mouse active caspase-3 antibody (Abeam Inc., ab2302, 5 μg/mL in 10% BSA of PBS, 50 μL/sample) at 4° C. for overnight, followed by washing with PBS (three times, 15 min/time) and incubating with peroxidase-conjugated polyclonal goat anti-rabbit antibodies (Abeam Inc., ab6721-200, 1:500 (v/v) in PBS, 100 μL/sample) at room temperature for 2 hours. These slides were first stained with DAB, subsequently counterstained with hematoxylin, and mounted with glass coverslisps before monitoring by light microscopy.

| Structure (SMILES) | IC50 (MDA-MB-231) [µg/mL] | tumor suppression [1] | tumor growth / tumor volume [2] | TUNEL staining (broken DNA strands) [3] | ROS production (MDA-MB-231 cell line) | maximal tolerated dose (MTD) [4] [µmol/kg] | apoptosis by active caspase-3 immunostaining [5] |
| --- | --- | --- | --- | --- | --- | --- | --- |
| N.N.O=C([O-])C1(C(=O)[O-])CCC1.[Pt+2] [carboplatin] | 35 | – | – | – | – | – | – |
| N.N.[Cl][Pt][Cl] [cisplatin] | 7 | notably efficacious in tumor suppression | can indeed cause tumors to shrink | TUNEL-positive staining | no significant ROS increase or decrease | 16.6 | can indeed cause apoptosis |
